Measured values: ChEMBL document CHEMBL3045851, “Design, synthesis, and in vitro antimicrobial activities of novel azetidinyl-3-quinazolin-4-one hybrids” (2012)
Converted amounts (≈) assume the structure as drawn.

What was measured:
Format in all cases: functional
[1] = test system: Streptococcus pyogenes; assay: Antibacterial activity against Streptococcus pyogenes MTCC 442 after overnight incubation by broth dilution method
[2] = test system: Staphylococcus aureus; assay: Antibacterial activity against Staphylococcus aureus MTCC 96 after overnight incubation by broth dilution method
[3] = test system: Salmonella typhimurium; assay: Antibacterial activity against Salmonella enterica subsp. enterica serovar Typhimurium MTCC 98 after overnight incubation by broth dilution method
[4] = test system: Klebsiella pneumoniae; assay: Antibacterial activity against Klebsiella pneumoniae MTCC 109 after overnight incubation by broth dilution method
[5] = test system: Pseudomonas aeruginosa; assay: Antibacterial activity against Pseudomonas aeruginosa MTCC 1688 after overnight incubation by broth dilution method
[6] = test system: Escherichia coli; assay: Antibacterial activity against Escherichia coli MTCC 443 after overnight incubation by broth dilution method
[7] = test system: Bacillus subtilis; assay: Antibacterial activity against Bacillus subtilis MTCC 441 after overnight incubation by broth dilution method
[8] = test system: Mycobacterium tuberculosis; assay: Growth inhibition of Mycobacterium tuberculosis H37Rv MTCC 200 at 250 ug/ml after 28 days by Lowenstein-Jensen method; conditions: H37Rv MTCC 200, 672 h, read-out: GI
[9] = test system: Aspergillus clavatus; assay: Antifungal activity against Aspergillus clavatus MTCC 1323 by broth microdilution method
[10] = test system: Aspergillus niger; assay: Antifungal activity against Aspergillus niger MTCC 282 by broth microdilution method
[11] = test system: Candida albicans; assay: Antifungal activity against Candida albicans MTCC 227 by broth microdilution method
[12] = test system: Mycobacterium tuberculosis; assay: Growth inhibition of Mycobacterium tuberculosis H37Rv MTCC 200 at 100 ug/ml after 28 days by Lowenstein-Jensen method; conditions: H37Rv MTCC 200, 672 h, read-out: GI
[13] = test system: Mycobacterium tuberculosis; assay: Growth inhibition of Mycobacterium tuberculosis H37Rv MTCC 200 at 0.2 ug/ml after 28 days by Lowenstein-Jensen method; conditions: H37Rv MTCC 200, 672 h, read-out: GI
[14] = test system: Mycobacterium tuberculosis; assay: Growth inhibition of Mycobacterium tuberculosis H37Rv MTCC 200 at 500 ug/ml after 28 days by Lowenstein-Jensen method; conditions: H37Rv MTCC 200, 672 h, read-out: GI
[15] = test system: Mycobacterium tuberculosis; assay: Growth inhibition of Mycobacterium tuberculosis H37Rv MTCC 200 at 40 ug/ml after 28 days by Lowenstein-Jensen method
[16] = test system: Mycobacterium tuberculosis; assay: Growth inhibition of Mycobacterium tuberculosis H37Rv MTCC 200 at 62.5 ug/ml after 28 days by Lowenstein-Jensen method; conditions: H37Rv MTCC 200, 672 h, read-out: GI
[17] = test system: Mycobacterium tuberculosis; assay: Growth inhibition of Mycobacterium tuberculosis H37Rv MTCC 200 at 270 ug/ml after 28 days by Lowenstein-Jensen method; conditions: H37Rv MTCC 200, 672 h, read-out: GI
[18] = test system: Mycobacterium tuberculosis; assay: Growth inhibition of Mycobacterium tuberculosis H37Rv MTCC 200 at 50 ug/ml after 28 days by Lowenstein-Jensen method; conditions: H37Rv MTCC 200, 672 h, read-out: GI
[19] = test system: Mycobacterium tuberculosis; assay: Growth inhibition of Mycobacterium tuberculosis H37Rv MTCC 200 at 259 ug/ml after 28 days by Lowenstein-Jensen method; conditions: H37Rv MTCC 200, 672 h, read-out: GI

Compound | MIC99 [1] [µg/mL] | MIC99 [2] [µg/mL] | MIC99 [3] [µg/mL] | MIC99 [4] [µg/mL] | MIC99 [5] [µg/mL] | MIC99 [6] [µg/mL] | MIC99 [7] [µg/mL] | inhibition of growth at 250 µg/mL [8] [%] | MIC99 [9] [µg/mL] | MIC99 [10] [µg/mL] | MIC99 [11] [µg/mL] | inhibition of growth at 100 µg/mL [12] [%] | inhibition of growth at 0.2 µg/mL [13] [%] | inhibition of growth at 500 µg/mL [14] [%] | growth inhibition (GI) [15] [%] | inhibition of growth at 62.5 µg/mL [16] [%] | inhibition of growth at 270 µg/mL [17] [%] | inhibition of growth at 50 µg/mL [18] [%] | inhibition of growth at 259 µg/mL [19] [%] | inhibition of growth at 40 µg/mL ([15]; H37Rv MTCC 200, 672 h, read-out: GI) [%]
CCn1cc(C(=O)O)c(=O)c2cc(F)c(N3CCNCC3)cc21 [NORFLOXACIN] | 10 (≈ 31.3 µM) | 10 (≈ 31.3 µM) | 10 (≈ 31.3 µM) | 10 (≈ 31.3 µM) | 10 (≈ 31.3 µM) | 10 (≈ 31.3 µM) |  |  |  |  |  |  |  |  |  |  |  |  |  | 
O=C(Nn1c(CNN2C(=O)C(Cl)C2c2ccccc2O)nc2ccccc2c1=O)c1ccncc1 (stereo unspecified) | 250 (≈ 509 µM) | 250 (≈ 509 µM) | 125 (≈ 255 µM) | 250 (≈ 509 µM) | 125 (≈ 255 µM) | 100 (≈ 204 µM) | 250 (≈ 509 µM) | 97 | 1000 (≈ 2040 µM) | 1000 (≈ 2040 µM) | 250 (≈ 509 µM) |  |  |  |  |  |  |  |  | 
O=C(Nn1c(CNN2C(=O)C(Cl)C2c2ccc(Br)cc2)nc2ccccc2c1=O)c1ccncc1 (stereo unspecified) | 200 (≈ 361 µM) | 200 (≈ 361 µM) | 100 (≈ 181 µM) | 500 (≈ 903 µM) | 200 (≈ 361 µM) | 62.5 (≈ 113 µM) | 200 (≈ 361 µM) |  | 500 (≈ 903 µM) | 1000 (≈ 1810 µM) | 500 (≈ 903 µM) | 97 |  |  |  |  |  |  |  | 
NNC(=O)c1ccncc1 [ISONIAZID] |  |  |  |  |  |  |  |  |  |  |  |  | 99 |  |  |  |  |  |  | 
NYSTATIN |  |  |  |  |  |  |  |  | 100 | 100 | 100 |  |  |  |  |  |  |  |  | 
O=C(Nn1c(CNN2C(=O)C(Cl)C2c2ccccc2[N+](=O)[O-])nc2ccccc2c1=O)c1ccncc1 (stereo unspecified) | 250 (≈ 481 µM) | 200 (≈ 385 µM) | 250 (≈ 481 µM) | 250 (≈ 481 µM) | 200 (≈ 385 µM) | 100 (≈ 192 µM) | 250 (≈ 481 µM) |  | 500 (≈ 962 µM) | 500 (≈ 962 µM) | 1000 (≈ 1920 µM) | 99 |  |  |  |  |  |  |  | 
CCc1ccc(C2C(Cl)C(=O)N2NCc2nc3ccccc3c(=O)n2NC(=O)c2ccncc2)cc1 (stereo unspecified) | 250 (≈ 497 µM) | 200 (≈ 398 µM) | 125 (≈ 249 µM) | 250 (≈ 497 µM) | 500 (≈ 994 µM) | 200 (≈ 398 µM) | 100 (≈ 199 µM) |  | > 1000 | > 1000 | 1000 (≈ 1990 µM) |  |  | 97 |  |  |  |  |  | 
O=C(O)c1cn(C2CC2)c2cc(N3CCNCC3)c(F)cc2c1=O [CIPROFLOXACIN] | 50 (≈ 151 µM) | 50 (≈ 151 µM) | 25 (≈ 75.4 µM) | 25 (≈ 75.4 µM) | 25 (≈ 75.4 µM) | 25 (≈ 75.4 µM) |  |  |  |  |  |  |  |  |  |  |  |  |  | 
O=C(N[C@H](CO)[C@H](O)c1ccc([N+](=O)[O-])cc1)C(Cl)Cl [CHLORAMPHENICOL] | 50 (≈ 155 µM) | 50 (≈ 155 µM) | 50 (≈ 155 µM) | 50 (≈ 155 µM) | 50 (≈ 155 µM) | 50 (≈ 155 µM) |  |  |  |  |  |  |  |  |  |  |  |  |  | 
GENTAMICIN | 0.5 | 0.25 | 1 | 0.05 | 1 | 0.05 |  |  |  |  |  |  |  |  | 98 |  |  |  |  | 
O=C(Nn1c(CNN2C(=O)C(Cl)C2c2ccc(Cl)cc2)nc2ccccc2c1=O)c1ccncc1 (stereo unspecified) | 500 (≈ 982 µM) | 500 (≈ 982 µM) | 100 (≈ 196 µM) | 100 (≈ 196 µM) | 100 (≈ 196 µM) | 50 (≈ 98.2 µM) | 250 (≈ 491 µM) |  | 1000 (≈ 1960 µM) | 1000 (≈ 1960 µM) | 250 (≈ 491 µM) |  |  |  |  | 99 |  |  |  | 
O=C(Nn1c(CNN2C(=O)C(Cl)C2c2cccc([N+](=O)[O-])c2)nc2ccccc2c1=O)c1ccncc1 (stereo unspecified) | 500 (≈ 962 µM) | 500 (≈ 962 µM) | 250 (≈ 481 µM) | 500 (≈ 962 µM) | 250 (≈ 481 µM) | 250 (≈ 481 µM) | 200 (≈ 385 µM) |  | > 1000 | > 1000 | 1000 (≈ 1920 µM) |  |  |  |  |  | 97 |  |  | 
COC1=CC(=O)C[C@@H](C)[C@]12Oc1c(Cl)c(OC)cc(OC)c1C2=O [GRISEOFULVIN] |  |  |  |  |  |  |  |  | 100 (≈ 283 µM) | 100 (≈ 283 µM) | 500 (≈ 1420 µM) |  |  |  |  |  |  |  |  | 
CC1(C)S[C@@H]2[C@H](NC(=O)[C@H](N)c3ccccc3)C(=O)N2[C@H]1C(=O)O [AMPICILLIN] | 100 (≈ 286 µM) | 250 (≈ 715 µM) | 100 (≈ 286 µM) | 100 (≈ 286 µM) | 100 (≈ 286 µM) | 100 (≈ 286 µM) |  |  |  |  |  |  | 99 |  |  |  |  |  |  | 
O=C(Nn1c(CNN2C(=O)C(Cl)C2c2ccc([N+](=O)[O-])cc2)nc2ccccc2c1=O)c1ccncc1 (stereo unspecified) | 125 (≈ 240 µM) | 100 (≈ 192 µM) | 200 (≈ 385 µM) | 200 (≈ 385 µM) | 150 (≈ 289 µM) | 150 (≈ 289 µM) | 100 (≈ 192 µM) |  | > 1000 | > 1000 | 500 (≈ 962 µM) |  |  |  |  |  |  | 99 |  | 
COc1ccc(C2C(Cl)C(=O)N2NCc2nc3ccccc3c(=O)n2NC(=O)c2ccncc2)cc1 (stereo unspecified) | 200 (≈ 396 µM) | 125 (≈ 248 µM) | 500 (≈ 990 µM) | 62.5 (≈ 124 µM) | 500 (≈ 990 µM) | 500 (≈ 990 µM) | 250 (≈ 495 µM) |  | 200 (≈ 396 µM) | 250 (≈ 495 µM) | 200 (≈ 396 µM) |  |  |  |  |  |  |  | 98 | 
CO[C@H]1/C=C/O[C@@]2(C)Oc3c(C)c(O)c4c(O)c(c(/C=N/N5CCN(C)CC5)c(O)c4c3C2=O)NC(=O)/C(C)=C\C=C\[C@H](C)[C@H](O)[C@@H](C)[C@@H](O)[C@@H](C)[C@H](OC(C)=O)[C@@H]1C [RIFAMPIN] |  |  |  |  |  |  |  |  |  |  |  |  |  |  |  |  |  |  |  | 98
O=C(Nn1c(CNN2C(=O)C(Cl)C2c2ccc(O)cc2)nc2ccccc2c1=O)c1ccncc1 (stereo unspecified) | 250 (≈ 509 µM) | 200 (≈ 407 µM) | 250 (≈ 509 µM) | 250 (≈ 509 µM) | 250 (≈ 509 µM) | 250 (≈ 509 µM) | 250 (≈ 509 µM) | 97 | > 1000 | > 1000 | 500 (≈ 1020 µM) |  |  |  |  |  |  |  |  | 
O=C(Nn1c(CNN2C(=O)C(Cl)C2c2ccccc2Cl)nc2ccccc2c1=O)c1ccncc1 (stereo unspecified) | 500 (≈ 982 µM) | 500 (≈ 982 µM) | 500 (≈ 982 µM) | 100 (≈ 196 µM) | 250 (≈ 491 µM) | 250 (≈ 491 µM) | 500 (≈ 982 µM) |  | 250 (≈ 491 µM) | 200 (≈ 393 µM) | 200 (≈ 393 µM) |  |  | 98 |  |  |  |  |  | 
O=C(Nn1c(CNN2C(=O)C(Cl)C2c2ccccc2)nc2ccccc2c1=O)c1ccncc1 (stereo unspecified) | 250 (≈ 526 µM) | 250 (≈ 526 µM) | 200 (≈ 421 µM) | 200 (≈ 421 µM) | 125 (≈ 263 µM) | 200 (≈ 421 µM) | 100 (≈ 211 µM) |  | 500 (≈ 1050 µM) | 500 (≈ 1050 µM) | 1000 (≈ 2110 µM) |  |  | 98 |  |  |  |  |  | 
